How the values were obtained:
[1] = kettle test of corrosion inhibition, atmospheric CO2, NACE brine/ISOPAR-M; details: 2.5 or 5 ppm added; 150° F. (66° C.), atmospheric CO2, 90% NACE brine and 10% ISOPAR-M; immediately after injection; blank 140 to 190 mpy
Experimental: FIG. 1 is a graph of the corrosion rate of mild steel at 150° F. (66° C.) in kettle tests at atmospheric CO2 with two different concentrations of 2,5-dimercapto-1,3,4-thiadiazole in a brine fluid.
A formulation of 10% 2,5-dimercapto-1,3,4 thiadiazole (DMTDA) in water with KOH added to adjust the pH to 8.1 was made. The corrosion inhibition of this formulation was tested in a kettle test at 150° F. (66° C.), atmospheric CO2 in a 90% NACE (National Association of Corrosion Engineers) brine and 10% ISOPAR™-M mixture.
The blank corrosion rates range from 140 to 190 mpy (mils per year). Immediately with the injection of the corrosion inhibitor, the corrosion rate lowered to below 40 mpy in the test with the addition of 2.5 or 5 ppm of 2,5-dimercapto-1,3,4-thiadiazole.

[2] = cited from earlier work

For `Sc1nnc(S)s1` [2,5-dimercapto-1,3,4-thiadiazole], the corrosion rate [1] is given as “below 40 mpy” and the solubility in water [2] is given as 0.01 wt %.
